Measurements from ChEMBL document CHEMBL4680374, “Carbamate and N-Pyrimidine Mitigate Amide Hydrolysis: Structure-Based Drug Design of Tetrahydroquinoline IDO1 Inhibitors” (ACS Med Chem Lett, 2021).
In brackets after ≈: the same amount, converted by molar mass. Activity calls are given as the source filed them. No cut-off for these calls is given here.

Legend:
[1] = Lipophilicity, log D of compound in PBS buffer at pH 7 at 200 uM incubated for 24 hrs in shaker by UPLC/DAD analysis; type: physicochemical
[2] = Solubility of compound in PBS buffer at pH 2 at 200 uM incubated for 24 hrs in shaker by UPLC-DAD analysis; type: physicochemical
[3] = Solubility of compound in PBS buffer at pH 7 at 200 uM incubated for 24 hrs in shaker by UPLC-DAD analysis; type: physicochemical
[4] = Drug metabolism in human hepatocytes assessed as oxidative metabolite formation at 30 uM measured upto 90 mins by LC-MS analysis; type: ADME, cell-based, Hepatocyte
[5] = molecular target: Voltage-gated inwardly rectifying potassium channel KCNH2 (Homo sapiens, UniProt Q12809); assay: Displacement of [35S]-MK499 binding to human ERG expressed in HEK293 cells incubated for 2 hrs by liquid scintillation counting method; type: cell-based
Sequence of Voltage-gated inwardly rectifying potassium channel KCNH2 (Q12809 whole entry): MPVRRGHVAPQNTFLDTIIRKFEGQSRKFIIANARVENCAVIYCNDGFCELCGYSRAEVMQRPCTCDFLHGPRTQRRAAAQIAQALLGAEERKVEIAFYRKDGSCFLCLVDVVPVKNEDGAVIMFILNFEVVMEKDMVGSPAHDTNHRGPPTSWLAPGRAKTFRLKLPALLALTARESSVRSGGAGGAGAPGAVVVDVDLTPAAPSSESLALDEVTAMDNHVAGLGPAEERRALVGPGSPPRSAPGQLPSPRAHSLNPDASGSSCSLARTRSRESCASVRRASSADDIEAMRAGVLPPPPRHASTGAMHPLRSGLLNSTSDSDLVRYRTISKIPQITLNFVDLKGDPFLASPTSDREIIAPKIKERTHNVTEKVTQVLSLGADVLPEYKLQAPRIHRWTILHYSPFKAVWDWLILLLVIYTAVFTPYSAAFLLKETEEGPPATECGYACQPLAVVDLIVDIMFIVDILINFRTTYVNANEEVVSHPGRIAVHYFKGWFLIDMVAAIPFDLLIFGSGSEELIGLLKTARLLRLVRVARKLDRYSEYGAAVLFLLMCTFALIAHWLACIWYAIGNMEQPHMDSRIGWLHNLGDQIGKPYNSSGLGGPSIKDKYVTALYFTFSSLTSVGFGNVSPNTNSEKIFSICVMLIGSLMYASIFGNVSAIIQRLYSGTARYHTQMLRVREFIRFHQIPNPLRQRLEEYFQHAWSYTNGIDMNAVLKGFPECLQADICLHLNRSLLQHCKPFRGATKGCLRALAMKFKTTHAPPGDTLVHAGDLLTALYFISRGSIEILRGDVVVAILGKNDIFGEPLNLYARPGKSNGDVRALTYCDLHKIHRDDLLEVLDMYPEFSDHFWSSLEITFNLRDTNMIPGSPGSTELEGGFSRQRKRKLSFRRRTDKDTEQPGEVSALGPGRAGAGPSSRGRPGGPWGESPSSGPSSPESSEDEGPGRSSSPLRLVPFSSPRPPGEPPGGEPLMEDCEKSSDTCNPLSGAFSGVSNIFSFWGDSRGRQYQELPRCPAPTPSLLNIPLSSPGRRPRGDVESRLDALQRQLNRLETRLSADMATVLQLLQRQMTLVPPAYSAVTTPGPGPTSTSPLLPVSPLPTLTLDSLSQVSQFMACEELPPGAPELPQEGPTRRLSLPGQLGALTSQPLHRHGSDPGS

[6] = Drug metabolism in rat hepatocytes assessed as oxidative metabolite formation at 30 uM measured upto 90 mins by LC-MS analysis; type: ADME, cell-based, Hepatocyte
[7] = molecular target: Cytochrome P450 3A4 (Homo sapiens, UniProt P08684); assay: Inhibition of CYP3A4 (unknown origin); type: ADME
Sequence of Cytochrome P450 3A4 (P08684 whole entry): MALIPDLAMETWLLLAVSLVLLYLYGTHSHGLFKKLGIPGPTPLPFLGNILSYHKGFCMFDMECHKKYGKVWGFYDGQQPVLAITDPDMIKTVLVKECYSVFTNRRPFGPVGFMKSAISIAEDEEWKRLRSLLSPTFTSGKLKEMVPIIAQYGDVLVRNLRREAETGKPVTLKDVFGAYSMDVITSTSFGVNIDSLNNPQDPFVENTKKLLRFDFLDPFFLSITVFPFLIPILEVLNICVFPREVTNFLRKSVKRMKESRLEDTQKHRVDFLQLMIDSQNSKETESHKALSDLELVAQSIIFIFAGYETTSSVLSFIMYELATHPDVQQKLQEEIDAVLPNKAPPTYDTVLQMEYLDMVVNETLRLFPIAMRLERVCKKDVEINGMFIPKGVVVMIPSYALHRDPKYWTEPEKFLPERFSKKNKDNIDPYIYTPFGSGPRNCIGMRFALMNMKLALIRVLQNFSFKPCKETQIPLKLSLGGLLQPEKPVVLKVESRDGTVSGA

[8] = Protein binding in human plasma assessed as unbound fraction; type: ADME, cell-free
[9] = Apparent permeability of compound; type: ADME; details: not told
[10] = Clearance in rat at 0.05 mg/kg, iv; type: ADME, organism-based; details: in vivo
[11] = Drug metabolism in rat hepatocytes assessed as amide hydrolysis metabolite formation at 30 uM measured upto 90 mins by LC-MS analysis; type: ADME, cell-based, Hepatocyte
[12] = Drug metabolism in human hepatocytes assessed as amide hydrolysis metabolite formation at 30 uM measured upto 90 mins by LC-MS analysis; type: ADME, cell-based, Hepatocyte
[13] = Half life in rat at 2 mg/kg, po or 1 mg/kg, iv; type: ADME, organism-based; details: in vivo
[14] = Protein binding in rat plasma assessed as unbound fraction; type: ADME, cell-free
[15] = Inhibition of Na ion channel (unknown origin); parameters: species or system Homo sapiens
[16] = Inhibition of Ca ion channel (unknown origin); parameters: species or system Homo sapiens
[17] = Unbound clearance in rat at 0.05 mg/kg, iv; type: ADME, organism-based; details: in vivo
[18] = molecular target: Tryptophan 2,3-dioxygenase (Homo sapiens) (UniProt P48775); assay: Inhibition of TDO in human SW48 cells assessed as inhibition of N-formylkynurenine production; type: cell-based
Sequence of Tryptophan 2,3-dioxygenase (Homo sapiens) (P48775 whole entry, looked up): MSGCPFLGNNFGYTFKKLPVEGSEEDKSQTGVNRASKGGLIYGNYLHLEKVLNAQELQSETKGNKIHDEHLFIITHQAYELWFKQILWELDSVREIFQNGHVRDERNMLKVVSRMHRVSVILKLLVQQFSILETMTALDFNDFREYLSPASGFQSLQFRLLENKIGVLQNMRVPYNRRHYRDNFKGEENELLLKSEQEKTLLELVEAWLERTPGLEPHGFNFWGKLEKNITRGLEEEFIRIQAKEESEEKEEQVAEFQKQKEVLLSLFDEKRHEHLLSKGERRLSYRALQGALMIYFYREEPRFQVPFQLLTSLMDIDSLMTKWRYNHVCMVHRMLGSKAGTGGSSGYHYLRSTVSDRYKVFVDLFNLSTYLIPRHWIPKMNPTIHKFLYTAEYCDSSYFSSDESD

[19] = Metabolic stability in human hepatocytes at 30 uM measured upto 90 mins by LC-MS analysis; type: ADME, cell-based, Hepatocyte
[20] = Plasma clearance in rat at 2 mg/kg, po or 1 mg/kg, iv; type: ADME, organism-based
[21] = Metabolic stability in rat hepatocytes at 30 uM measured upto 90 mins by LC-MS analysis; type: ADME, cell-based, Hepatocyte

Structure (SMILES) | logD at 24 h, 200 µM [1] | solubility at 24 h, 200 µM [2] | solubility at 24 h, 200 µM [3] | other results
COCCOC(=O)N1CCCc2nc([C@@H](C)NC(=O)c3ccc(F)cc3)ccc21 | 2.3 | 196 µM (≈ 78.7 µg/mL) | 165 µM (≈ 66.2 µg/mL) | –
C[C@@H](NC(=O)c1ccc(F)cc1)c1ccc2c(n1)CCCN2c1ccnc(C#N)n1 | 2.7 | 163 µM (≈ 65.6 µg/mL) | 152 µM (≈ 61.2 µg/mL) | –
C[C@@H](NC(=O)c1ccc(F)cc1)c1ccc2c(n1)CCCN2c1ccncn1 | 1.9 | 157 µM (≈ 59.3 µg/mL) | 164 µM (≈ 61.9 µg/mL) | –
C[C@@H](NC(=O)c1ccc(Cl)cc1)c1ccc2c(c1)CCCN2C(=O)c1cccc(Cl)c1 | 3.7 | < 1 µM | 3 µM (≈ 1.36 µg/mL) | Drug metabolism [4]: Metabolite_Detected; IC50 [5]: 1 µM; Drug metabolism [6]: Metabolite_Detected
C[C@@H](NC(=O)c1ccc(Cl)cc1)c1ccc2c(n1)CCCN2C(=O)c1cccc(Cl)c1 | 3.4 | 171 µM (≈ 77.7 µg/mL) | 11 µM (≈ 5 µg/mL) | IC50 [5]: 8.7 µM
CCCNC(=O)C1(c2ccc(NC(=O)c3cccc(Cl)c3)cc2)CCC1 | 3.2 | – | – | –
C[C@@H](NC(=O)c1ccc(F)cc1)c1ccc2c(n1)CCCN2C(=O)OC1CCC1 | 3.2 | 184 µM (≈ 73.1 µg/mL) | 134 µM (≈ 53.3 µg/mL) | –
C[C@@H](NC(=O)c1ccc(F)cc1)c1ccc2c(n1)CCCN2C(=O)c1cccc(Cl)c1 | 3.1 | 148 µM (≈ 64.8 µg/mL) | 82 µM (≈ 35.9 µg/mL) | IC50 [7]: 20 µM; fraction unbound [8]: 0.029; Papp [9]: 32 ×10⁻⁶ cm/s; clearance [10]: 57 mL/min/kg; Drug metabolism [11]: Metabolite_Detected; Drug metabolism [12]: Metabolite_Detected; half-life [13]: 96 min; fraction unbound [14]: 0.037; IC50 [15]: 20 µM; IC50 [16]: 20 µM; CL free [17]: 1566 mL/min/kg
O=C(NCc1ccc2c(c1)CCCN2C(=O)c1cccc(Cl)c1)c1ccc(Cl)cc1 | – | – | – | IC50 [5]: 11 µM
CC(C)CC(=O)N1CCCc2cc(CNC(=O)c3ccsc3)ccc21 | 2.8 | 140 µM (≈ 49.9 µg/mL) | 137 µM (≈ 48.8 µg/mL) | inhibition [18]: inactive; Stabilty [19]: Unstable; IC50 [5]: 24 µM; clearance [20]: 93 mL/min/kg; half-life [13]: 12 min; Stabilty [21]: Unstable
CCOC(=O)N1CCCc2nc([C@@H](C)NC(=O)c3ccc(F)cc3)ccc21 | 2.7 | 183 µM (≈ 68 µg/mL) | 168 µM (≈ 62.4 µg/mL) | –
COC(=O)N1CCCc2nc([C@@H](C)NC(=O)c3ccc(F)cc3)ccc21 | 2.3 | 167 µM (≈ 59.7 µg/mL) | 154 µM (≈ 55 µg/mL) | –
CC(C)CC(=O)N1CCCc2cc(CNC(=O)c3ccc(Cl)cc3)cnc21 | 3 | 185 µM (≈ 71.4 µg/mL) | 97 µM (≈ 37.4 µg/mL) | –
C[C@@H](NC(=O)c1ccc(Cl)cc1)c1ccc2c(c1)C(F)(F)CCN2C(=O)c1cccc(Cl)c1 | 3.9 | < 4 µM | < 4 µM | –
